Results: US20240130368A1, “HERBICIDAL COMPOSITION” (Nippon Soda Co., Ltd., priority 2021, published 2024)
Like-named read-outs stand apart in the source and are kept apart here.

Legend:
Format in all cases: in vivo
[1] = system: Ambrosia artemisiifolia; assay: Test Example 1: seeds on filter paper moistened with chemical solution, herbicidal effect visually evaluated; conditions: visually evaluated 6 days after treatment; for pest or weed control at 0.2 ppm: amount of active ingredient 0.2 ppm
Protocol: As the compound (1), 1-methoxy-3-methyl-6-(1,1-dioxido-8-(trifluoromethyl)thiochroman-5-yl)-7-oxa-3,4-diazabicyclo[4.1.0]hept-4-en-2-one (Compound (I-3)) was used.
(§1) The compound (I) or compound (II) was prepared into a 5% emulsion using DMF (containing 1.5% Tween) and diluted with water to a prescribed dosage concentration. Commercially available preparations were dissolved in water and adjusted to a prescribed dosage concentration.
(§2) Seeds were soaked in 0.6% sodium hypochlorite for a predetermined time for surface sterilization and washed with water for use (seed disinfection). Seeds of Ambrosia artemisiifolia were used for the test.
(§3) Filter paper was placed on a cup (diameter: 10 cm, height: 4 cm) with a lid and moistened with 8 ml of chemical solution, and seeds were sown thereon, and after covering with a lid, grown in a constant temperature room.
(§4) The herbicidal effects were visually evaluated, 6 days after the treatment, as the herbicidal effect (%), by comparing with a state of an untreated group using a total of 21 scores of withering index from 0 to 20 (0: mortality rate equivalent to that of the untreated group, 20: mortality rate of 100%).
(§5) In addition, the expected values of the herbicidal effects were calculated from the herbicidal effects in a case where the compound (I) alone was applied and the herbicidal effects in a case where the compound (II) alone was applied by using the Colby's formula (Colby, S. R., Calculating synergistic and antagonistic responses of herbicide combinations, Weeds, 15, pp. 20-22 (1967)).
(§6) M indicates an herbicidal effect (%) in the application of the compound (I) alone, N indicates an herbicidal effect (%) in the application of the compound (II) alone, and E indicates an expected value (%) of the herbicidal effect in the combined application of the compound (T) and the compound (TT). When the actual measured value (%) of the herbicidal effect in the combined application of the compound (I) and the compound (II) is greater than the expected value E, it can be regarded that the combined application of the compound (I) and the compound (II) has a synergistic effect.

[2] = system: Zea mays; assay: Test Example 4: foliar spraying treatment, herbicidal effect from above ground weight (useful plant); conditions: 3 weeks after spraying
Protocol: (§7) POA allylphenyl ether (4.1 parts by weight), POE-POP glycol (1 part by weight), POE sorbitan laurate (0.8 parts by weight), glycerin (2.6 parts by weight), dimethylformamide (65.9 parts by weight), N-methylpyrrolidone (5.1 parts by weight), cyclohexanone (15.4 parts by weight), and aromatic hydrocarbons (5.1 parts by weight) were mixed and dissolved to prepare an emulsion. The active ingredient (4 mg) of the composition of the present invention was dissolved in this emulsion (100 μL) to prepare a test emulsion. It should be noted that POA means “polyoxyalkylene”, POE means “polyoxyethylene”, and POP means “polyoxypropylene”.
(§8) A 300 cm^2 pot was filled with soil, and seeds of Zea mays, Setaria faberi, Sorghum halepense, Brachiaria platyphylla, Amaranthus palmeri, Senna obtusifolia and Ipomoea hederacea were sown into the surface layer, and then grown in a greenhouse after being covered lightly with soil. When each plant grew to a plant height of 7 to 11 cm, it was used for the test. The test emulsion was diluted so that the amount of the active ingredient became a predetermined amount, and sprayed on the foliage with a small sprayer at a spray water volume of 250 L per hectare.
(§9) For the evaluation of the herbicidal effects, the above ground weights of weeds in the untreated and treated areas were measured for each weed 3 weeks after spraying treatment, and the herbicidal effect (%) was calculated by the following calculation formula.
as §5, with “(1967)). […]” for “(1967)).”

[3] = system: Amaranthus palmeri; assay: Test Example 4: foliar spraying treatment, herbicidal effect from above ground weight; conditions: 3 weeks after spraying
Protocol: as §7, §8, §9, §5
(§10) M indicates an herbicidal effect (%) in the application of the compound (1) alone, N indicates an herbicidal effect (%) in the application of the compound (II) alone, and E indicates an expected value (%) of the herbicidal effect in the combined application of the compound (I) and the compound (II). When the actual measured value (%) of the herbicidal effect in the combined application of the compound (I) and the compound (II) is greater than the expected value E, it can be regarded that the combined application of the compound (1) and the compound (II) has a synergistic effect.
(§11) Herbicidal effect (%)=[(above ground weight of weeds in untreated area)−(above ground weight of weeds in treated area)/(above ground weight of weeds in untreated area)]×100
(§12) The following grass species were used as grass species to be controlled [scientific names]. • Giant foxtail [Setaria faberi] • Johnson grass [Sorghum halepense] • Broadleaf signalgrass [Brachiaria platyphylla] • Palmer amaranth [Amaranthus palmeri] • Sicklepod [Senna obtusifolia] • Morning glory [Ipomoea hederacea]

[4] = system: Brachiaria platyphylla; assay: as above; conditions: 3 weeks after spraying
Protocol: as §7, §8, §9, §5, §10, §11, §12

[5] = system: Ipomoea hederacea; assay: as above; conditions: 3 weeks after spraying
Protocol: as §7, §8, §9, §5, §10, §11, §12

[6] = system: Senna obtusifolia; assay: as above; conditions: 3 weeks after spraying
Protocol: as §7, §8, §9, §5, §10, §11, §12

[7] = system: Setaria faberi; assay: as above; conditions: 3 weeks after spraying
Protocol: as §7, §8, §9, §5, §10, §11, §12

[8] = system: Sorghum halepense; assay: as above; conditions: 3 weeks after spraying
Protocol: as §7, §8, §9, §5, §10, §11, §12

[9] = system: Zea mays; assay: Test Example 6: foliar spraying treatment, herbicidal effect from above ground weight (useful plant)
Protocol: as §7
(§13) A test emulsion was prepared in the same manner as in Test Example 4.
as §8, with “mays” for “mays, Setaria faberi, Sorghum halepense, Brachiaria platyphylla, Amaranthus palmeri, Senna obtusifolia”, “9” for “11”, “cm,” for “cm, it was used for”, “above” for “test. The”
(§14) Test Examples 6-1 and 6-3 were evaluated in the same manner as in Test Example 4.
(§15) The expected values of the herbicidal effects in Test Example 6-2 were calculated using the following Colby's formula (Colby, S. R., Calculating synergistic and antagonistic responses of herbicide combinations, Weeds, 15, pp. 20-22 (1967)).
(§16) X indicates an herbicidal effect (%) by applying the compound (1) alone, Y and Z each indicate an herbicidal effect (%) by applying one of the two types of the compounds (II) alone, and E indicates an expected value (%) of the herbicidal effect by applying combinations of the compound (I) and two types of the compounds (II).
(§17) When the actual measured value (%) of the herbicidal effect by the combined application of the compound (I) and two types of the compounds (11) is greater than the expected value E, it can be regarded that the combined application of the compound (1) and two types of the compounds (II) has a synergistic effect.
The following plants were used as useful plants [scientific names]. • Corn for animal feed [Zea mays]

[10] = system: Ipomoea hederacea; assay: Test Example 6: foliar spraying treatment, herbicidal effect from above ground weight
Protocol: as §7, §13
as §8, with “mays” for “mays, Setaria faberi, Sorghum halepense, Brachiaria platyphylla, Amaranthus palmeri, Senna obtusifolia”, “9” for “11”, “cm,” for “cm, it was used for”, “above” for “test. The”
as §14, §15, §16, §17
The following grass species were used as grass species to be controlled [scientific names]. • Morning glory [Ipomoea hederacea]

[11] = system: Abutilon theophrasti; assay: Test Example 3: seeds on filter paper moistened with chemical solution, herbicidal effect visually evaluated; conditions: 6 days after the treatment
Protocol: as §1, §2, §3, §4, §5, §6
The herbicidal effects were evaluated by the same method as in Test Example 1 except that the seeds used in the test were changed from Ambrosia artemisiifolia to Abutilon theophrasti.

[12] = system: Triticum aestivum; assay: Test Example 5: spraying on the soil surface, herbicidal effect from above ground weight (useful plant); conditions: Flufenacet alone, 250 gai/ha, sprayed on the soil surface, seven weeks after spraying
Protocol: as §7, §9, §11, §13
(§18) A 300 cm^2 pot was filled with soil, and seeds of Triticum aestivum, multidrug-resistant Alopecurus myosuroides, Lolium multiflorum and Avena fatua were sown into the surface layer, and covered with soil to a thickness of 0.5 to 1 cm. The above test emulsion was diluted so that the amount of the active ingredient became a predetermined amount, and sprayed on the soil surface at a spray water volume of 250 L per hectare, followed by growth in an outdoor environment.
(§19) Seven weeks after spraying, the evaluation was carried out in the same manner as in Test Example 4, except that the above ground weights of weeds in the untreated and treated areas were measured for each weed.
The following plants were used as useful plants [scientific names]. • Wheat [Triticum aestivum]

[13] = system: Avena fatua; assay: Test Example 5: spraying on the soil surface, herbicidal effect from above ground weight; conditions: Flufenacet alone, 250 gai/ha, sprayed on the soil surface, seven weeks after spraying
Protocol: as §7, §9, §11, §13, §18, §19
(§20) The following grass species were used as grass species to be controlled [scientific names]. • Blackgrass * [Alopecurus myosuroides] • Italian ryegrass [Lolium multiflorum] • Wild oat [Avena fatua]

[14] = system: Lolium multiflorum; assay: as above; conditions: Flufenacet alone, 250 gai/ha, sprayed on the soil surface, seven weeks after spraying
Protocol: as §7, §9, §11, §13, §18, §19, §20

[15] = system: multidrug-resistant Alopecurus myosuroides; assay: as above; conditions: Flufenacet alone, 250 gai/ha; sprayed on the soil surface; seven weeks after spraying; Alopecurus myosuroides multidrug-resistant strain
Protocol: as §7, §9, §11, §13, §18, §19, §20

[16] = system: Digitaria ciliaris; assay: Test Example 2: seeds on filter paper moistened with chemical solution, herbicidal effect visually evaluated; conditions: Pinoxaden alone, 0.2 ppm, 6 days after the treatment
[17] = Ambrosia artemisiifolia, 144 h, applied alone, amount of active ingredient 0.8 ppm, read-out: Herbicidal effect (%)

## CCOCN(C(=O)CCl)c1c(C)cccc1CC [Acetochlor]
[1]; [17]
  pest or weed control at 0.8 ppm: 40%
[2]; Acetochlor alone, 1,000 gai/ha
  Actual measured value of herbicidal effect: 0%
[3]; Acetochlor alone, 1,000 gai/ha
  Actual measured value of herbicidal effect: 50%
[4]; Acetochlor alone, 1,000 gai/ha
  Actual measured value of herbicidal effect: 60%
[5]; Acetochlor alone, 1,000 gai/ha
  Actual measured value of herbicidal effect: 20%
[6]; Acetochlor alone, 1,000 gai/ha
  Actual measured value of herbicidal effect: 20%
[7]; Acetochlor alone, 1,000 gai/ha
  Actual measured value of herbicidal effect: 70%
[8]; Acetochlor alone, 1,000 gai/ha
  Actual measured value of herbicidal effect: 60%
[9]; Acetochlor alone, 2,000 gai/ha
  Actual measured value of herbicidal effect: 0%
[10]; Acetochlor alone, 2,000 gai/ha
  Actual measured value of herbicidal effect: 20%

## CCNc1nc(Cl)nc(NC(C)C)n1 [Atrazine]
[1]; Ambrosia artemisiifolia, 144 h, applied alone, amount of active ingredient 200 ppm
  pest or weed control at 200 ppm: 10%
[2]; Atrazine alone, 500 gai/ha
  Actual measured value of herbicidal effect: 0%
[3]; Atrazine alone, 500 gai/ha
  Actual measured value of herbicidal effect: 100%
[4]; Atrazine alone, 500 gai/ha
  Actual measured value of herbicidal effect: 0%
[5]; Atrazine alone, 500 gai/ha
  Actual measured value of herbicidal effect: 100%
[6]; Atrazine alone, 500 gai/ha
  Actual measured value of herbicidal effect: 30%
[7]; Atrazine alone, 500 gai/ha
  Actual measured value of herbicidal effect: 100%
[8]; Atrazine alone, 500 gai/ha
  Actual measured value of herbicidal effect: 0%

## O=C(O)c1nc(Cl)ccc1Cl [Clopyralid]
[1]; Ambrosia artemisiifolia, 144 h, applied alone, amount of active ingredient 12.5 ppm, read-out: Herbicidal effect (%)
  pest or weed control at 12.5 ppm: 90%
[9]; Clopyralid alone, 125 gai/ha
  Actual measured value of herbicidal effect: 0%
[10]; Clopyralid alone, 125 gai/ha
  Actual measured value of herbicidal effect: 30%

## COc1nn(C(=O)[N-]S(=O)(=O)c2ccccc2OC(F)(F)F)c(=O)n1C.[Na+] [Flucarbazone-Sodium, reference compound]
[11]; Flucarbazone-Sodium alone, 3.1 ppm
  Herbicidal effect: 20%

## CC(C)N(C(=O)COc1nnc(C(F)(F)F)s1)c1ccc(F)cc1 [Flufenacet, reference compound]
[1]; Ambrosia artemisiifolia, 144 h, compound applied alone, read-out: Herbicidal effect (%)
  pest or weed control at 0.2 ppm: 20%
[12]
  Actual measured value of herbicidal effect: 30%
[13]
  Actual measured value of herbicidal effect: 60%
[14]
  Actual measured value of herbicidal effect: 70%
[15]
  Actual measured value of herbicidal effect: 40%

## CCc1cc(C)cc(CC)c1-c1c(OC(=O)C(C)(C)C)n2n(c1=O)CCOCC2 [Pinoxaden, reference compound]
[16]
  Herbicidal effect: 10%

## Cn1nc(C(F)(F)F)c(CS(=O)(=O)C2=NOC(C)(C)C2)c1OC(F)F [Pyroxasulfone]
[1]; Ambrosia artemisiifolia, 144 h, applied alone, read-out: Herbicidal effect (%)
  pest or weed control at 0.2 ppm: 30%
[9]; Pyroxasulfone alone, 94 gai/ha
  Actual measured value of herbicidal effect: 0%
[10]; Pyroxasulfone alone, 94 gai/ha
  Actual measured value of herbicidal effect: 60%

## COC(=O)c1sccc1S(=O)(=O)NC(=O)Nc1nc(C)nc(OC)n1 [Thifensulfuron-methyl, reference compound]
[11]; Thifensulfuron-methyl alone, 0.8 ppm
  Herbicidal effect: 10%

## CCCN(CCC)c1c([N+](=O)[O-])cc(C(F)(F)F)cc1[N+](=O)[O-] [Trifluralin]
[1]; [17]
  pest or weed control at 0.8 ppm: 10%

## S-metolachlor
[1]; compound applied alone, amount of active ingredient 0.8 ppm
  Herbicidal effect (%): 20%
